These results are taken from patent publication US5270302A, “Derivatives of tetrapeptides as CCK agonists” (priority 1991, dated 1993).

Like-named read-outs stand apart in the source and are kept apart here. *1 amine or outer side, *2 acyl side, *3 side chain or, on linkers, in order; H or OH if unused. Where a SMILES comes first, the peptide text is derived from it. Side-chain parts run from the residue outwards. [ ]: non-standard residue; d: D form. The star is where a group is joined. ξ: configuration not given here. ξαMeW = CC(N)(Cc1c[nH]c2ccccc12)C(=O)O; NMeF = CN[C@@H](Cc1ccccc1)C(=O)O; Cha = N[C@@H](CC1CCCCC1)C(=O)O; NMeD = CN[C@@H](CC(=O)O)C(=O)O; NH(2-Me-phenyl) = Cc1ccccc1N*; X15 = Clc1cccc(N*)c1Cl; Boc = CC(C)(C)OC(=O)*; CO = O=C([*:1])[*:2]; X2 = C1CN(CCO*)CCO1; Moc = COC(=O)*

Experiment [1] concerns rats. Description: Feeding effects of acute administration of CCK agonists in rats (liquid diet). The class given is in vivo. The conditions noted are these: i.p., acute (1 day). The text has this:
Feeding Effects of Acute Administration of CCK Agonists in Rats
The experimental paradigm used in the above-mentioned chronic feeding studies was employed to establish dose reponses for CCK agonists of this invention on an acute (1 day) basis. Following an 8-day diet acclimation period, the rats were weighed and injected with vehicle. CCK-8 or test compound (see Table 7) at doses ranging from 1-1000 nmol/kg (i.p.). Six to ten minutes later, the rats were presented with the diet and intakes were recorded. No injections were administered prior to the P.M. feeding. Mean A.M. intakes as a percent of control were plotted versus log dose (nm/kg) to establish the dose response curve.

The target of experiment [2] is T1, Type-A CCK receptor (Cavia porcellus, UniProt Q63931).
T1 construct: Cortical and pancreatic membranes were prepared as described; from tissue; host or cells: guinea pig pancreas membranes
T1 sequence (Q63931 1-430): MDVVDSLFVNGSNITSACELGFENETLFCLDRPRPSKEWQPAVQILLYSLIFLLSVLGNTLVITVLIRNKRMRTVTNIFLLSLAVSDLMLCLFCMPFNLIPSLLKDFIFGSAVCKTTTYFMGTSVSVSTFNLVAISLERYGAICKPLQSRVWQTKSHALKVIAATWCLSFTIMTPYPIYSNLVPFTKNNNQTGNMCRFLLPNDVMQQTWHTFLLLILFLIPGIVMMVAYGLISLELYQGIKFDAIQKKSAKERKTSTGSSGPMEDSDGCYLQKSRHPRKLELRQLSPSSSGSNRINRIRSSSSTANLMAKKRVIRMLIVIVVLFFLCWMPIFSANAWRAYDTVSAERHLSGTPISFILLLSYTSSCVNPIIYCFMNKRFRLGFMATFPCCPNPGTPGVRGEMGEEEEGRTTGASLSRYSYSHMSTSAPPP
Kind of experiment: Radioligand binding of [125I]BH-CCK-8 in guinea pig pancreatic membrane preparations. The method, boiled down:
(§1)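 Membranes came from male guinea pig pancreas (type A) or cerebral cortex (type B) and were resuspended in pH 7.4 HEPES-EGTA-salt buffer containing bestatin and phosphoramidon. Test compounds competed with [125I]BH-CCK-8 in 0.1% BSA: cortex 150 min at 30 °C, pancreas 150 min at 37 °C. Reactions ended by filtration; IC50 from Hill analysis.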

Experiment [3] deals with T2, Type-B CCK receptor (Cavia porcellus, UniProt H0VZC5).
T2 construct: Cortical and pancreatic membranes were prepared as described; from tissue; host or cells: guinea pig cerebral cortex membranes
T2 sequence (H0VZC5 1-426): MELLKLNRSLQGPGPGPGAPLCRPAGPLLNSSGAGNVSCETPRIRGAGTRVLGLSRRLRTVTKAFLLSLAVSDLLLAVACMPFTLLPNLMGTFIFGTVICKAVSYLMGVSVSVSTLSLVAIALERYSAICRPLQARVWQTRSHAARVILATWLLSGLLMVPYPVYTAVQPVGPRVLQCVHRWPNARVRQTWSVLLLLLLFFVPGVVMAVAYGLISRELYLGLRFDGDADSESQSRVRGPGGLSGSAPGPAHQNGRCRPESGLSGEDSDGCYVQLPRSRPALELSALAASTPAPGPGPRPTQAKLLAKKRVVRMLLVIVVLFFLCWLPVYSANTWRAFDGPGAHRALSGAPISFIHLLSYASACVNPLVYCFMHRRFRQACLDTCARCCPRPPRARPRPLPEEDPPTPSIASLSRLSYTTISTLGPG
Description: Radioligand binding of [125I]BH-CCK-8 in guinea pig cerebral cortical membrane preparations. In short, it runs like this:
as §1

[4] abbreviates: IC50 (nM) 125I-BH-CCK-8 Type-A receptor, guinea pig pancreatic membranes, 37° C., 150 min.
Setting [5] is: IC50 (nM) 125I-BH-CCK-8 Type-B receptor, guinea pig cortical membranes, 30° C., 150 minutes.
The mark [6] stands for this setting: guinea pig pancreatic membranes, 37° C., 150 min, read-out: IC50 (nM) 125I-BH-CCK-8 Type-A receptor.
The mark [7] stands for this setting: guinea pig cortical membranes, 30° C., 150 minutes, read-out: IC50 (nM) 125I-BH-CCK-8 Type-B receptor.

By IC50 is commonly meant the midpoint of a concentration-inhibition curve. Consider `Cc1ccccc1NC(=O)NCCCC[C@H](NC(=O)[C@H](Cc1c[nH]c2ccccc12)NC(=O)OC(C)(C)C)C(=O)N(C)[C@@H](CC(=O)O)C(=O)N(C)[C@@H](Cc1ccccc1)C(N)=O` [Example 61, t-BOC-Trp-Lys(ε-N-(2-methylphenyl)aminocarbonyl)(NMe)Asp-(NMe)PheNH2] (Boc-WK([CO-NH(2-Me-phenyl)])[NMeD][NMeF]-NH2), for which, in experiment [1], the “ED25, suppression of feeding (liquid diet)” value (from here on “ED25, suppression of feeding”) is on record as 0.6 nmol/kg and the “ED50, dose required to decrease mean A.M. food intake by 50%” value is 2.6 nmol/kg. The IC50 in experiment [2] stood at 4.8 nM. The half-maximal inhibitory concentration (IC50) in experiment [3] worked out at 10000 nM.

Regarding `Cc1ccccc1NC(=O)NCCCC[C@H](NC(=O)C(C)(N)Cc1c[nH]c2ccccc12)C(=O)N[C@@H](CC(=O)O)C(=O)N[C@@H](Cc1ccccc1)C(N)=O` (stereo partly drawn) [Example 97, D,L-(α-Methyl)Trp-Lys(ε-N-(2-methylphenyl)aminocarbonyl)-Asp-PheNH2] (H-[ξαMeW]K([CO-NH(2-Me-phenyl)])DF-NH2), in experiment [1], the “ED25, suppression of feeding” value was found to be 1.8 nmol/kg and the “ED50, dose required to decrease mean A.M. food intake by 50%” value stood at 9.4 nmol/kg. Moreover, the IC50 in experiment [2] (setting [4]) turned out to be 11 nM. Also, the IC50 in experiment [3] (setting [5]) was 2600 nM.

Consider `Cc1ccccc1NC(=O)NCCCC[C@H](NC(=O)CCc1c[nH]c2ccccc12)C(=O)N(C)[C@@H](CC(=O)O)C(=O)N[C@@H](Cc1cccc2ccccc12)C(N)=O` [Example 103, (3-(3-Indolyl)propionyl)-Lys(ε-N-(2-methylphenyl)aminocarbonyl)-(NMe)Asp-α-NalNH2], for which the IC50 came to 6.1 nM in experiment [2] (setting [6]) and 6600 nM in experiment [3] (setting [7]).

`Cc1ccccc1NC(=O)NCCCC[C@H](NC(=O)C(C)Cc1c[nH]c2ccccc12)C(=O)N[C@@H](CC(=O)O)C(=O)N(C)[C@@H](Cc1ccccc1)C(N)=O` (stereo partly drawn) [Example 104, (2-Methyl-3-(3-indolyl)propionyl)-Lys(ε-N-(2-methylphenyl)aminocarbonyl)-Asp-(NMe)PheNH2]: the IC50 is 200 nM in experiment [2] (setting [6]) and 4100 nM in experiment [3] (setting [7]).

Turning to `Cc1ccccc1NC(=O)NCCCC[C@H](NC(=O)C(C#N)Cc1c[nH]c2ccccc12)C(=O)N[C@@H](CC(=O)O)C(=O)N(C)[C@@H](Cc1ccccc1)C(N)=O` (stereo partly drawn) [Example 105, (2-Cyano-3-(3-indolyl)propionyl)-Lys(ε-N-(2-methylphenyl)aminocarbonyl)-Asp-(NMe)PheNH2], the figures for the IC50 in experiment [2] (setting [6]) and in experiment [3] (setting [7]) were 20 nM and 1300 nM, respectively.

As to `Cc1ccccc1NC(=O)NCCCC[C@H](NC(=O)C(Cc1c[nH]c2ccccc12)C(N)=O)C(=O)N[C@@H](CC(=O)O)C(=O)N(C)[C@@H](Cc1ccccc1)C(N)=O` (stereo partly drawn) [Example 106, (2-Aminocarbonyl-3-(3-indolyl)propionyl)-Lys(ε-N-(2-methylphenyl)aminocarbonyl)-Asp-(NMe)PheNH2], the “ED25, suppression of feeding” value in experiment [1] was 6.9 nmol/kg. Further, in experiment [1], the “ED50, dose required to decrease mean A.M. food intake by 50%” value is 58.5 nmol/kg. For the same molecule, the figures for the IC50 in experiment [2] (setting [6]) and in experiment [3] (setting [7]) were 13 nM and more than 10000 nM, respectively.

For the molecule `CCOC(=O)C(C)(Cc1c[nH]c2ccccc12)C(=O)N[C@@H](CCCCNC(=O)Nc1ccccc1C)C(=O)N[C@@H](CC(=O)O)C(=O)N(C)[C@@H](Cc1ccccc1)C(N)=O` (stereo partly drawn) [Example 107, (2-Carboethoxy-2-methyl-3-(3-indolyl)propionyl)-Lys(ε-N-(2-methylphenyl)amino-carbonyl)-Asp-(NMe)PheNH2], in experiment [1], the “ED25, suppression of feeding” value is 3.7 nmol/kg and the “ED50, dose required to decrease mean A.M. food intake by 50%” value was 26.1 nmol/kg. Also, the half-maximal inhibitory concentration (IC50) in experiment [2] (setting [6]) was found to be 21 nM. Also, in experiment [3] (setting [7]), the IC50 was 1400 nM.

For `Cc1ccccc1NC(=O)NCCCC[C@H](NC(=O)C(F)Cc1c[nH]c2ccccc12)C(=O)N[C@@H](CC(=O)O)C(=O)N(C)[C@@H](Cc1ccccc1)C(N)=O` (stereo partly drawn) [Example 108, (2-Fluoro-3-(3-indolyl)propionyl)-Lys(ε-N-(2-methylphenyl)aminocarbonyl)-Asp-(NMe)PheNH2], the values for the IC50 in experiment [2] (setting [6]) and in experiment [3] (setting [7]) were 14 nM and 10000 nM, respectively.

Take `Cc1ccccc1NC(=O)NCCCC[C@H](NC(=O)C(F)Cc1c[nH]c2ccccc12)C(=O)N(C)[C@@H](CC(=O)O)C(=O)N[C@@H](Cc1ccccc1)C(N)=O` (stereo partly drawn) [Example 109, (2-Fluoro-3-(3-indolyl)propionyl)-Lys(ε-N-(2-methylphenyl)aminocarbonyl)-(NMe)Asp-PheNH2]: the values for the 50% inhibitory concentration (IC50) in experiment [2] (setting [6]) and in experiment [3] (setting [7]) were 15 nM and more than 10000 nM, respectively.

As to `Cc1ccccc1NC(=O)NCCCC[C@H](NC(=O)CCc1cccc2ccccc12)C(=O)N[C@@H](CC(=O)O)C(=O)N(C)[C@@H](Cc1ccccc1)C(N)=O` [Example 111, (3-(α-Naphthyl)propionyl)-Lys(ε-N-(2-methylphenyl)aminocarbonyl)-Asp-(NMe)PheNH2], the values for the IC50 in experiment [2] (setting [6]) and in experiment [3] (setting [7]) were 77 nM and more than 10000 nM, respectively.

For the molecule `Cc1ccccc1NC(=O)NCCCC[C@H](NC(=O)C1Cc2c[nH]c3cccc(c23)CC(=O)N1)C(=O)N[C@@H](CC(=O)O)C(=O)N(C)[C@@H](Cc1ccccc1)C(N)=O` (stereo partly drawn) [Example 112, Ctp-Lys(ε-N-(2-methylphenyl)aminocarbonyl)-Asp-(NMe)PheNH2], the figures for the IC50 in experiment [2] (setting [4]) and in experiment [3] (setting [5]) were 6.3 nM and 900 nM, respectively.

Regarding `Cc1ccccc1NC(=O)NCCCC[C@H](NC(=O)[C@H](Cc1c[nH]c2ccccc12)NC(=O)OC(C)(C)C)C(=O)N[C@@H](CC(=O)O)C(=O)N1CCC[C@]1(Cc1ccccc1)C(N)=O` [Example 115, t-BOC-Trp-Lys(ε-N-(2-methylphenyl)aminocarbonyl)-Asp-(S)-α-benzylprolinamide], the results for the IC50 in experiment [2] (setting [4]) and in experiment [3] (setting [5]) were 18 nM and more than 10000 nM, respectively.

As for `Cc1ccccc1NC(=O)NCCCC[C@H](NC(=O)[C@H](Cc1c[nH]c2ccccc12)NC(=O)OC(C)(C)C)C(=O)N[C@@H](CC(=O)O)C(=O)N[C@@H](CC1CCCCC1)C(N)=O` [Example 116, t-BOC-Trp-Lys(ε-N-(2-methylphenyl)aminocarbonyl)-Asp-ChaNH2] (Boc-WK([CO-NH(2-Me-phenyl)])D[Cha]-NH2), the IC50 was 10 nM in experiment [2] (setting [4]) and 4000 nM in experiment [3] (setting [5]).

For the molecule `Cc1ccccc1NC(=O)NCCCC[C@H](NC(=O)[C@H](Cc1c[nH]c2ccccc12)NC(=O)OC(C)(C)C)C(=O)N[C@@H](CC(=O)OCCN1CCOCC1)C(=O)N(C)[C@@H](Cc1ccccc1)C(N)=O` [Example 120, t-BOC-Trp-Lys(ε-N-(2-methylphenyl)aminocarbonyl)-Asp(β-2-(1-morpholino)ethyl)-(NMe)PheNH2] (Boc-WK([CO-NH(2-Me-phenyl)])D(X2)[NMeF]-NH2), the IC50 in experiment [2] is 26 nM; in experiment [3] it was 13000 nM.

In the case of `Cc1ccccc1NC(=O)NCCCC[C@H](NC(=O)C(C)(N)Cc1c[nH]c2ccccc12)C(=O)N(C)[C@@H](CC(=O)O)C(=O)N[C@@H](Cc1ccccc1)C(N)=O` (stereo partly drawn) [Example 123] (H-[ξαMeW]K([CO-NH(2-Me-phenyl)])[NMeD]F-NH2), the IC50 in experiment [2] (setting [4]) is 5.9 nM; in experiment [3] (setting [5]), more than 10000 nM.

Regarding `COC(=O)N[C@@H](Cc1c[nH]c2ccccc12)C(=O)N[C@@H](CCCCNC(=O)Nc1ccccc1C)C(=O)N(C)[C@@H](CC(=O)O)C(=O)N(C)[C@@H](Cc1ccccc1)C(N)=O` [Example 124] (Moc-WK([CO-NH(2-Me-phenyl)])[NMeD][NMeF]-NH2), the values for the IC50 in experiment [2] (setting [4]) and in experiment [3] (setting [5]) were 4.5 nM and 2600 nM, respectively.

Turning to `CC(C)(C)OC(=O)N[C@@H](Cc1c[nH]c2ccccc12)C(=O)N[C@@H](CCCCNC(=O)Nc1cccc(Cl)c1Cl)C(=O)N[C@@H](CC(=O)O)C(=O)N[C@@H](Cc1ccccc1)C(N)=O` [Example 125, t-BOC-Trp-Lys(ε-N-(2,3-dichlorophenyl)aminocarbonyl)-Asp-PheNH2] (Boc-WK([CO-X15])DF-NH2), the IC50 in experiment [2] (setting [6]) was 2.8 nM; in experiment [3] (setting [7]), more than 10000 nM.
